# PMC9721424, “Novel N-methylsulfonyl-indole derivatives: biological activity and COX-2/5-LOX inhibitory effect with improved gastro protective profile and reduced cardio vascular risks” (Journal of Enzyme Inhibition and Medicinal Chemistry, 2022)
# Target: T1, COX-2 (Ovis aries, UniProt P79208)
# T1 sequence (P79208 17-603): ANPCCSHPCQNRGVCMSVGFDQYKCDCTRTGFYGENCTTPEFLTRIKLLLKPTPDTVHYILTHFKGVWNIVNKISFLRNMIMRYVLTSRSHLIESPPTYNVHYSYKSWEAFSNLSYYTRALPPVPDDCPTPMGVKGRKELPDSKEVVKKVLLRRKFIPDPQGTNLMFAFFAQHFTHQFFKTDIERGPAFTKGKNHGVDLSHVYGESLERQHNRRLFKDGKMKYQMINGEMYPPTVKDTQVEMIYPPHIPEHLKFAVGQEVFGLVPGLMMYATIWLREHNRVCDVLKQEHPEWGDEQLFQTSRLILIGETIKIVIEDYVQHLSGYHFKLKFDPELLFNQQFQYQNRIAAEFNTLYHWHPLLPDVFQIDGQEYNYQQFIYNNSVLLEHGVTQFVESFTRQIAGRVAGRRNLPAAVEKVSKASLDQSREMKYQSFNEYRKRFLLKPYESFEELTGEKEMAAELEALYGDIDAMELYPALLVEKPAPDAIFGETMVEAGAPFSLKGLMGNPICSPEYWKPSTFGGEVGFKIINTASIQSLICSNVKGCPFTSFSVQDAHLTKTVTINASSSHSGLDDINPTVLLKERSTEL
# Assay: COX-2 inhibition, enzyme immune assay (EIA) kit
# Assay type: biochemical, ovine
# Conditions: COX-2 selectivity index
row,Structure (SMILES),S.I (IC50 COX-1/IC50 COX-2)
1,"CS(=O)(=O)n1cc(/C=N/NC(=O)Nc2ccccc2)c2ccccc21 [Compound 3b, (E)-2{[1-(methylsulfonyl)-1H-indol-3yl]methylene}-N-phenylhydrazinecarboxamide]",1.46

# Same assay, conditions: lab report, COX1/COX2
row,Structure (SMILES),SI
1,"CS(=O)(=O)n1cc(/C=N/NC(=O)Nc2ccccc2)c2ccccc21 [Compound 3b, (E)-2{[1-(methylsulfonyl)-1H-indol-3yl]methylene}-N-phenylhydrazinecarboxamide]",1.455

# Tested on: TNF-α in RAW264.7 macrophage cells
# Assay: In vitro measurement of TNF-α in RAW264.7 macrophage cells (RT-qPCR)
# Assay type: cell-based
# Conditions: not given
# Source text: Both Lipopolysaccharides (LPS) and hispidin were purchased from Sigma (Sigma-Aldrich, St. Louis, MO, USA)[40]. The foetal bovine serum (FBS) and Dulbecco’s modified Eagle’s medium (DMEM) were purchased from Hyclone (General Electric Healthcare Life Sciences, Mississauga, Canada), penicillin streptomycin (P/S) was purchased from Solarbio (Solarbio life sciences, Beijing, P. R. China). Results of all in vitro anti-inflammatory screening were obtained from the confirmatory diagnostic unit, VACSERA, Egypt.
# DMEM was used to cultivate the macrophage cells RAW264.7 (Shanghai BOGO Industrial Co., Ltd., Shanghai, China), and supplemented with 10% FBS and 1% P/S (100 U/ml and […], respectively). […] They were treated with various concentrations of hispidin, then with 1 μg/ml LPS for the indicated time.
# PBS (1 ml/well) was used to wash the cells in 24-well plates. […] For the experiments, CL Buffer included MgCl2 (M1028; Sigma) or RNasin Plus RNase Inhibitor (N2615; Promega). Before use, both Bio-Rad SPR and CL buffer were equilibrated to room temperature. […] Carefully, the resulting lysates were collected and either analysed immediately or stored frozen ([…]).
# RT-qPCR analysis was performed in one-step SYBR Green RT-qPCR. […] A CFX96 real-time PCR instrument (Bio-Rad) was used under the following protocol: 50uC for 10 min, 95uC for 5 min, 95uC for 10 s/61uC for 15 s/72uC for 30 s.
# Total RNA purified from cells was used as an RT-qPCR quantification standard.
row,Structure (SMILES),TNF-α fold change
1,"CS(=O)(=O)n1cc(/C=N/NC(=O)Nc2ccccc2)c2ccccc21 [Compound 3b, (E)-2{[1-(methylsulfonyl)-1H-indol-3yl]methylene}-N-phenylhydrazinecarboxamide]",0.71

# Tested on: not given
# Assay: not given
# Conditions: not given
row,Structure (SMILES),melting point
1,"CS(=O)(=O)n1cc(/C=N/NC(=O)Nc2ccccc2)c2ccccc21 [Compound 3b, (E)-2{[1-(methylsulfonyl)-1H-indol-3yl]methylene}-N-phenylhydrazinecarboxamide]",234 to 236 °C

# Tested on: not listed separately
# Assay: DPPH free radical assay
# Assay type: biochemical
# Conditions: 540 nm, 30 min, relative to Trolox
# Protocol: Preparation of samples was occurred at the following concentrations: Samples 3a, 4a, 5b, 5d and 5e at final concentrations of 0.5 mg/ml in methanol: DMSO 9:1 v/v. Samples 4b and 4d at final concentrations 0.025 mg/ml in methanol: DMSO 9:1 v/v, sample 5a at final concentrations 0.25 mg/ml in methanol: DMSO 9:1 v/v, Sample 4c, 5c and 4e at final concentrations 0.05 mg/ml in methanol: DMSO 9:1 v/v, sample 3b at final concentration 0.75 mg/ml methanol: DMSO 9:1 v/v. A stock solution of 100 µM concentration of Trolox, a standard used in this experiment, was prepared in methanol from which seven concentrations were prepared, including 50, 40, 30, 20, 15, 10 and 5 µM.
# The DPPH (2,2-diphenyl-1-picryl-hydrazyl-hydrate) free radical assay was carried out according to the method of Boly et al. 2016[39]. Briefly, freshly prepared DPPH reagent (100 µl, 0.1% in methanol) was added to 100 µl of the sample on 96 well plates (n = 6). The reaction was incubated at room temp for 30 min in the dark. After completion of the incubation time, the reduction in DPPH colour intensity was measured at 540 nm. Data obtained was represented as means ± SD, according to the following equation, percentage inhibition = [(Average absorbance of blank – average absorbance of the test)/(Average absorbance of blank)] *100. The results were recorded using a microplate reader, FluoStar Omega.
# Microsoft Excel® was used to analyse the obtained results. The IC50 values were calculated using Graph pad Prism 6® by converting the concentrations to their logarithmic value and selecting the non-linear inhibitor regression equation (log (inhibitor) vs. normalised response – variable slope equation). The methods used and the final test report (R-SO7320) were obtained from Nawah Scientific.
row,Structure (SMILES),DPPH test results (µM trolox equivalent/ 1mg sample ± SD)
1,"CS(=O)(=O)n1cc(/C=N/NC(=O)Nc2ccccc2)c2ccccc21 [Compound 3b, (E)-2{[1-(methylsulfonyl)-1H-indol-3yl]methylene}-N-phenylhydrazinecarboxamide]",14.38 ± 0.85 µM trolox equivalent/ 1mg sample

# Target: T2, ovine COX-1 (Ovis aries, UniProt P05979)
# T2 sequence (P05979 25-600): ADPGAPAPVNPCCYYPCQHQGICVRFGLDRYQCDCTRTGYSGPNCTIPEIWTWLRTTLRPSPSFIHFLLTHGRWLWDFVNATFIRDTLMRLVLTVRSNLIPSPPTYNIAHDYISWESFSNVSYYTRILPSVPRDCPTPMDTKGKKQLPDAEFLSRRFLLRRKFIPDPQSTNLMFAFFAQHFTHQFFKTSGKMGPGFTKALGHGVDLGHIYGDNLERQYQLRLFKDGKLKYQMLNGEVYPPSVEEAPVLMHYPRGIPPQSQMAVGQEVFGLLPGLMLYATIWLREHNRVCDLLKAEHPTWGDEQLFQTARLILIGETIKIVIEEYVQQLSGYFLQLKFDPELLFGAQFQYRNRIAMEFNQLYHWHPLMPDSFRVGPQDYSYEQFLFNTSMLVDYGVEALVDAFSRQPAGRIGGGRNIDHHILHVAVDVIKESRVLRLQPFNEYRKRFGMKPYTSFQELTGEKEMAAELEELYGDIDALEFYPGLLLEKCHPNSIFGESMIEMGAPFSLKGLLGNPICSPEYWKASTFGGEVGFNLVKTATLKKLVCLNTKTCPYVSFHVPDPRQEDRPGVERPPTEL
# Assay: COX-1 inhibition, enzyme immune assay (EIA) kit
# Conditions: IC50 COX-1
# Source text: Colorimetric enzyme immunoassay (EIA) kits were done to screen for the isozyme-specific inhibition.
row,Structure (SMILES),IC50
1,"CS(=O)(=O)n1cc(/C=N/NC(=O)Nc2ccccc2)c2ccccc21 [Compound 3b, (E)-2{[1-(methylsulfonyl)-1H-indol-3yl]methylene}-N-phenylhydrazinecarboxamide]",32 ± 0.91 µM

# Same assay, conditions: conc 0.1 (μM)
row,Structure (SMILES),COX1 %inh
1,"CS(=O)(=O)n1cc(/C=N/NC(=O)Nc2ccccc2)c2ccccc21 [Compound 3b, (E)-2{[1-(methylsulfonyl)-1H-indol-3yl]methylene}-N-phenylhydrazinecarboxamide]",3.48%

# Same assay, conditions: conc 1 (μM)
row,Structure (SMILES),COX1 %inh
1,"CS(=O)(=O)n1cc(/C=N/NC(=O)Nc2ccccc2)c2ccccc21 [Compound 3b, (E)-2{[1-(methylsulfonyl)-1H-indol-3yl]methylene}-N-phenylhydrazinecarboxamide]",11.6%

# Same assay, conditions: conc 10 (μM)
row,Structure (SMILES),COX1 %inh
1,"CS(=O)(=O)n1cc(/C=N/NC(=O)Nc2ccccc2)c2ccccc21 [Compound 3b, (E)-2{[1-(methylsulfonyl)-1H-indol-3yl]methylene}-N-phenylhydrazinecarboxamide]",30.5%

# Same assay, conditions: conc 100 (μM)
row,Structure (SMILES),COX1 %inh
1,"CS(=O)(=O)n1cc(/C=N/NC(=O)Nc2ccccc2)c2ccccc21 [Compound 3b, (E)-2{[1-(methylsulfonyl)-1H-indol-3yl]methylene}-N-phenylhydrazinecarboxamide]",68.5%

# Target: T3, 5-LOX enzyme (Homo sapiens, UniProt P09917)
# T3 construct: purchased Cayman Chemical K980-100
# T3 sequence (P09917 1-674): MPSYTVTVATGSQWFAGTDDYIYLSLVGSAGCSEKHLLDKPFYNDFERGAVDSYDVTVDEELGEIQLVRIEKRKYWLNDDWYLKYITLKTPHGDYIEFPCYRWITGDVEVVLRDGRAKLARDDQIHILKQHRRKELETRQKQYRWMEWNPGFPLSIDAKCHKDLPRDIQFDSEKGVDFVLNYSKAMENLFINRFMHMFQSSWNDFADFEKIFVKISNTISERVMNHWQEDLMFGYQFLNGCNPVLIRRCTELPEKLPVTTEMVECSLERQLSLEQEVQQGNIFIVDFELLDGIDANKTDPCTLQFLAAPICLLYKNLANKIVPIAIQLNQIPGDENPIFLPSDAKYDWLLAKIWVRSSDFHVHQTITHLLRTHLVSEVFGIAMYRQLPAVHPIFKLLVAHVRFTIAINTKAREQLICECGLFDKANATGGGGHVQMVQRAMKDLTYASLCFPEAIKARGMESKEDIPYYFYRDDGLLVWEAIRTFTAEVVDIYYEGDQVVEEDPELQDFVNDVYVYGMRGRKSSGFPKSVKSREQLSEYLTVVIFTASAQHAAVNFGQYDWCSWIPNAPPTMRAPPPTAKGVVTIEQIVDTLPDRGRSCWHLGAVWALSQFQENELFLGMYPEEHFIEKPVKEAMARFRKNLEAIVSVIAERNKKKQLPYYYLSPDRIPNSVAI
# Assay: 5-LOX inhibition, Human Lipoxygenase Inhibitor Screening Assay (EIA) kit
# Assay type: biochemical
# Conditions: not given
# Protocol: The ability of the test compounds to inhibit the 5-LOX enzyme (IC50 value, μM) was detected using the Cayman Human Lipoxygenase Inhibitor Screening Assay (EIA) kit (catalog no. K980-100, Cayman Chemical). The IC50 values of test compounds were measured in µM according to the manufacturer’s instructions and reported method.
row,Structure (SMILES),IC50
1,"CS(=O)(=O)n1cc(/C=N/NC(=O)Nc2ccccc2)c2ccccc21 [Compound 3b, (E)-2{[1-(methylsulfonyl)-1H-indol-3yl]methylene}-N-phenylhydrazinecarboxamide]",14.8 ± 0.78 µM

# Same assay, conditions: conc 0.1 (μM)
row,Structure (SMILES),5-LOX %inh
1,"CS(=O)(=O)n1cc(/C=N/NC(=O)Nc2ccccc2)c2ccccc21 [Compound 3b, (E)-2{[1-(methylsulfonyl)-1H-indol-3yl]methylene}-N-phenylhydrazinecarboxamide]",5.27%

# Same assay, conditions: conc 1 (μM)
row,Structure (SMILES),5-LOX %inh
1,"CS(=O)(=O)n1cc(/C=N/NC(=O)Nc2ccccc2)c2ccccc21 [Compound 3b, (E)-2{[1-(methylsulfonyl)-1H-indol-3yl]methylene}-N-phenylhydrazinecarboxamide]",16.1%

# Same assay, conditions: conc 10 (μM)
row,Structure (SMILES),5-LOX %inh
1,"CS(=O)(=O)n1cc(/C=N/NC(=O)Nc2ccccc2)c2ccccc21 [Compound 3b, (E)-2{[1-(methylsulfonyl)-1H-indol-3yl]methylene}-N-phenylhydrazinecarboxamide]",36.1%

# Same assay, conditions: conc 100 (μM)
row,Structure (SMILES),5-LOX %inh
1,"CS(=O)(=O)n1cc(/C=N/NC(=O)Nc2ccccc2)c2ccccc21 [Compound 3b, (E)-2{[1-(methylsulfonyl)-1H-indol-3yl]methylene}-N-phenylhydrazinecarboxamide]",78.4%
